biological target: recombinant α-synuclein fibrils (Homo sapiens, UniProt P37840); assay: Thioflavin T competitive binding fluorescence assay; details: Thioflavin T assay Ki, mean ± SD, at least three experiments, NB = no binding was measurable (concentrations up to 10 μM)

| Ki [µM] | SMILES |
| --- | --- |
| 0.68 ± 0.139 | COc1ccc2ccc(/C=C/c3ccccc3)nc2c1 [Compound 3, (E)-7-methoxy-2-styrylquinoline] |
| 0.015 ± 0.003 | COc1cc(-c2nc(-c3ccc4cc(OCCF)ccc4n3)no2)ccn1 [Compound 28, 3-(6-(2-Fluoroethoxy)quinolin-2-yl)-5-(2-methoxypyridin-4-yl)-1,2,4-oxadiazole] |
| 0.192 ± 0.001 | COc1ccc2nc(/C=C/c3ccccc3)ccc2c1 [Compound 2, (E)-6-Methoxy-2-styrylquinoline] |

same assay, conditions: mean ± SD, at least three experiments, NB = no binding was measurable (concentrations up to 10 μM)

| Thioflavin T assay Ki | SMILES |
| --- | --- |
| no binding | COc1ccc2nc(/C=C/c3ccnc(F)c3)ccc2c1 [Compound 11, (E)-2-(2-(2-Fluoropyridin-4-yl)vinyl)-6-methoxyquinoline] |
| no binding | COc1cccc2nc(/C=C/c3ccccc3)ccc12 [Compound 1, (E)-5-Methoxy-2-styrylquinoline] |
| moderate binding | COc1ccc2nc(/C=C/c3ccncc3Br)ccc2c1 [Compound 16, (E)-2-(2-(3-Bromopyridin-4-yl)vinyl)-6-methoxyquinoline] |
| no binding | COc1cccc2ccc(/C=C/c3ccccc3)nc12 [Compound 4, (E)-8-Methoxy-2-styrylquinoline] |
| no binding | COc1ccc2nc(/C=C/c3ccncc3Cl)ccc2c1 [Compound 15, (E)-2-(2-(3-Chloropyridin-4-yl)vinyl)-6-methoxyquinoline] |

same assay, conditions: read-out: Thioflavin T assay Ki, mean ± SD, at least three experiments, NB = no binding was measurable (concentrations up to 10 μM)

| Ki [µM] | SMILES |
| --- | --- |
| > 10 | COc1cc(-c2nc(-c3ccc4cc(OC(C)C)ccc4n3)no2)ccn1 [Compound 30, 3-(6-Isopropoxyquinolin-2-yl)-5-(2-methoxypyridin-4-yl)-1,2,4-oxadiazole] |
| > 10 | COc1ccc2nc(/C=C/c3ccnc(F)c3)ccc2c1 [Compound 11, (E)-2-(2-(2-Fluoropyridin-4-yl)vinyl)-6-methoxyquinoline] |
| > 10 | COCOc1ccc2nc(-c3noc(-c4ccn5ccnc5c4)n3)ccc2c1 [Compound 34, 5-(Imidazo[1,2-a]pyridin-7-yl)-3-(6-(methoxymethoxy)-quinolin-2-yl)-1,2,4-oxadiazole] |
| 0.018 ± 0.001 | COc1cc(/C=C/c2ccc3cc(OCCF)ccc3n2)ccn1 [Compound 14, (E)-6-(2-Fluoroethoxy)-2-(2-(2-methoxypyridin-4-yl)vinyl)quinolone] |
| > 10 | COc1cccc2nc(/C=C/c3ccccc3)ccc12 [Compound 1, (E)-5-Methoxy-2-styrylquinoline] |
| > 10 | COc1cc(/C=C/c2ccncc2)nc2ccccc12 [Compound 6, (E)-4-Methoxy-2-(2-(pyridin-4-yl)vinyl)quinolone] |
| 0.056 ± 0.04 | COc1cccc2nc(/C=C/c3ccncc3)ccc12 [Compound 7, (E)-5-Methoxy-2-(2-(pyridin-4-yl)vinyl)quinolone] |
| > 10 | COc1ccc2nc(-c3noc(-c4ccn5ccnc5c4)n3)ccc2c1 [Compound 31, 5-(Imidazo[1,2-a]pyridin-7-yl)-3-(6-methoxyquinolin-2-yl)-1,2,4-oxadiazole] |
| > 10 | CC(C)Oc1ccc2nc(-c3noc(-c4ccn5ccnc5c4)n3)ccc2c1 [Compound 32, 5-(Imidazo[1,2-a]pyridin-7-yl)-3-(6-isopropoxyquinolin-2-yl)-1,2,4-oxadiazole] |
| > 10 | COc1cccc2ccc(/C=C/c3ccncc3)nc12 [Compound 10, (E)-8-Methoxy-2-(2-(pyridin-4-yl)vinyl)quinolone] |
| > 10 | COc1cc2ccccc2nc1/C=C/c1ccncc1 [Compound 5, (E)-3-Methoxy-2-(2-(pyridin-4-yl)vinyl)quinolone] |
| > 10 | FCCOc1ccc2nc(-c3noc(-c4ccn5ccnc5c4)n3)ccc2c1 [Compound 33, 3-(6-(2-Fluoroethoxy)quinolin-2-yl)-5-(imidazo[1,2-a]pyridin-7-yl)-1,2,4-oxadiazole] |
| > 10 | COc1ccc2ccc(/C=C/c3ccncc3)nc2c1 [Compound 9, (E)-7-Methoxy-2-(2-(pyridin-4-yl)vinyl)quinolone] |
| 0.052 ± 0.038 | COc1ccc2nc(/C=C/c3ccncc3)ccc2c1 [Compound 8, (E)-6-Methoxy-2-(2-(pyridin-4-yl)vinyl)quinolone] |
| > 10 | COc1ccc2nc(-c3noc(-c4cccnc4)n3)ccc2c1 [Compound 26, 3-(6-Methoxyquinolin-2-yl)-5-(pyridin-3-yl)-1,2,4-oxadiazole] |
| > 10 | COCOc1ccc2nc(-c3noc(-c4ccnc(OC)c4)n3)ccc2c1 [Compound 29, 3-(6-(Methoxymethoxy)quinolin-2-yl)-5-(2-methoxypyridin-4-yl)-1,2,4-oxadiazole] |
| 0.052 ± 0.021 | COc1ccc2nc(/C=C/c3ccnc(OC)c3)ccc2c1 [Compound 13, (E)-6-Methoxy-2-(2-(2-methoxypyridin-4-yl)vinyl)quinolone] |
| > 10 | COc1cccc2ccc(/C=C/c3ccccc3)nc12 [Compound 4, (E)-8-Methoxy-2-styrylquinoline] |
| > 10 | COc1ccc2nc(/C=C/c3ccncc3Cl)ccc2c1 [Compound 15, (E)-2-(2-(3-Chloropyridin-4-yl)vinyl)-6-methoxyquinoline] |

Source: PMC5870887 (Bioorganic & medicinal chemistry letters, 2018)
